Values quoted from earlier work as cited in paper PMC10088252.
Like-named read-outs stand apart in the source and are kept apart here.

Experiments:
[1] = test system: MET exon 14-mutated or MET-amplified NSCLC; set-up: method as in PMID 32877583; settings: cited from earlier work
[2] = test system: MET exon 14-mutated NSCLC; set-up: method as in PMID 35720834; settings: real-world; cited from earlier work
[3] = test system: MET-positive solid tumors; set-up: method as in PMID 31778267; settings: all patients (76); cited from earlier work
[4] = test system: MET- or ROS1-positive NSCLC; set-up: method as in PMID 31584608; settings: cited from earlier work
[5] = test system: NSCLC harboring MET exon 14 skipping mutation; set-up: method as in PMID 34166627; settings: cited from earlier work
[6] = test system: advanced solid tumors with c-MET H-score of ≥ 150; set-up: method as in PMID 30285518; settings: 16 patients with NSCLC; cited from earlier work
[7] = of 13 patients with brain metastases at baseline

Q: For `CNC(=O)c1ccc(-c2cnc3ncc(Cc4ccc5ncccc5c4)n3n2)cc1F` [capmatinib], which ORR ([1]; MET amplification, gene copy number < 10) is on record?
A: 7–12%

Q: And the ORR ([1]; MET amplification, gene copy number ≥ 10, previously treated)?
A: 29%

Q: And the ORR ([1]; MET amplification, gene copy number ≥ 10, treatment-naïve)?
A: 40%

Q: What about the TEAE nausea [1] of the same molecule?
A: 45%

Q: And the TEAE peripheral edema [1]?
A: 51%

Q: What about the “patients who discontinued treatment due to TRAEs” value [1] of the same molecule?
A: 11%

Q: What about the “patients achieving intracranial response” value [1, 7] of the same molecule?
A: Seven

Q: And the “patients with intracranial CR” value [1, 7]?
A: four

Q: And the ORR ([1]; patients harboring MET exon 14 skipping mutation)?
A: 41%

Q: What about the ORR ([1]; previously treated MET exon 14-mutated NSCLC) of the same molecule?
A: 41%

Q: And the ORR ([1]; treatment-naïve MET exon 14-mutated NSCLC)?
A: 68%

Q: And the ORR [2]?
A: 58%

Q: What about the “median PFS” value [2] of the same molecule?
A: 9.5 months

Q: And the DCR [3]?
A: 26%

Q: Which results are given for `C[C@@H](Oc1cc(-c2cnn(C3CCNCC3)c2)cnc1N)c1c(Cl)ccc(F)c1Cl` [crizotinib]?
A: ORR ([4]; MET copy number ≥ 6): 16%; ORR ([4]; MET mutation): 10.7%

Q: With `C[C@@H](c1ccc2nccn2c1)n1nnc2ncc(-c3cnn(C)c3)nc21` [savolitinib] as the molecule, how does the DCR ([5]; 15 MET exon 14-mutated NSCLC patients with brain metastases) read?
A: 93.3%

Q: And the “grade ≥ 3 TRAE increased ALT” value [5]?
A: 10%

Q: And the “grade ≥ 3 TRAE increased AST” value [5]?
A: 13%

Q: And the “grade ≥ 3 TRAE peripheral oedema” value [5]?
A: 9%

Q: What about the “incidence of grade ≥ 3 TRAEs” value [5] of the same molecule?
A: 46%

Q: What about the ORR ([5]; patients harboring MET exon 14 skipping mutation, FAS) of the same molecule?
A: 42.9%

B1: telisotuzumab vedotin (conjugate, chains of the INN, looked up)
VH: QVQLVQSGAEVKKPGASVKVSCKASGYIFTAYTMHWVRQAPGQGLEWMGWIKPNNGLANYAQKFQGRVTMTRDTSISTAYMELSRLRSDDTAVYYCARSEITTEFDYWGQGTLVTVSS
VL: DIVMTQSPDSLAVSLGERATINCKSSESVDSYANSFLHWYQQKPGQPPKLLIYRASTRESGVPDRFSGSGSGTDFTLTISSLQAEDVAVYYCQQSKEDPLTFGGGTKVEIK
modifications: vedotin (MMAE) payload
Q: With B1 as the molecule, how does the DCR [6] read?
A: 56%
